The results in this text go back to PubChem BioAssay (NCI).

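A five-concentration, 48-hour dose response in 96-well plates underlies each endpoint, interpolated linearly between surrounding concentrations. The concentration for 50% growth inhibition is given as GI50. TGI denotes the concentration required for complete inhibition of growth.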

Test systems include UO-31 renal; SW-620 colon; T-47D breast; NCI/ADR-RES ovarian; OVCAR-5 ovarian; SNB-75 CNS; DU-145 prostate; CCRF-CEM leukemia; NCI-H226 lung; MDA-MB-435.
Common to all, as to assay: growth of human tumour cells (NCI), 48 h

For the compound `c1ccc2[nH]c(-c3ccc(OCCCCCOc4ccc(-c5nc6ccccc6[nH]5)cc4)cc3)nc2c1`, the GI50 in the assay with UO-31 renal was 1.25 µM; in the assay on SW-620 colon, 1.02 µM; with T-47D breast it was 0.822 µM; in the assay on NCI/ADR-RES ovarian, 2.28 µM; in the assay with OVCAR-5 ovarian, 2.69 µM; with SNB-75 CNS, 1.91 µM. Further, the GI50 in the assay on DU-145 prostate was 0.639 µM; with CCRF-CEM leukemia, 0.195 µM; with NCI-H226 lung, 21.3 µM; in the assay with MDA-MB-435 it was 1.63 µM. For the same compound, the TGI with UO-31 renal was determined as 3.67 µM; in the assay on SW-620 colon it was 3.69 µM; in the assay with T-47D breast, 2.13 µM; in the assay with NCI/ADR-RES ovarian it was 7.2 µM; with OVCAR-5 ovarian it was 6.75 µM; with SNB-75 CNS it was 3.69 µM. Also, the TGI in the assay on DU-145 prostate worked out at 3.41 µM; in the assay on CCRF-CEM leukemia, 0.54 µM; in the assay with NCI-H226 lung, 55.9 µM; with MDA-MB-435, 3.94 µM.

Turning to `CNC1NC(=O)c2ccccc2N1Cc1ccc(F)cc1` (stereo not given), the TGI was 26 µM in the assay on UO-31 renal; more than 100 µM in the assay on SW-620 colon; more than 100 µM with T-47D breast; more than 100 µM with NCI/ADR-RES ovarian; more than 100 µM in the assay on OVCAR-5 ovarian; more than 100 µM in the assay on SNB-75 CNS. Moreover, the TGI in the assay with DU-145 prostate, in the assay on CCRF-CEM leukemia, in the assay on NCI-H226 lung and with MDA-MB-435 was more than 100 µM throughout.

For the compound `COc1cc2c(OC)c(c1)CCCC1=CC(=O)C=C(CCC2)C1=O`, the TGI in the assay on UO-31 renal was more than 100 µM; in the assay on SW-620 colon, more than 77 µM; in the assay with T-47D breast it was 43.5 µM; with NCI/ADR-RES ovarian it was more than 65.7 µM; with OVCAR-5 ovarian it was more than 100 µM; in the assay on SNB-75 CNS, more than 100 µM. In addition, the TGI in the assay with DU-145 prostate is more than 100 µM; in the assay with CCRF-CEM leukemia, 20.1 µM; in the assay on NCI-H226 lung, more than 100 µM; with MDA-MB-435 it was 56.2 µM.

As to `NC1CCC[C@@H](O)[C@H]1O` (stereo not given in full), the TGI with UO-31 renal, with SW-620 colon, in the assay on T-47D breast, in the assay on NCI/ADR-RES ovarian, in the assay with OVCAR-5 ovarian and in the assay with SNB-75 CNS was more than 100 µM each time. Also, the TGI in the assay with DU-145 prostate, with CCRF-CEM leukemia, in the assay on NCI-H226 lung and with MDA-MB-435 was more than 100 µM in each case.

Turning to `COc1cc(-c2cn(-c3ccc(Cl)cc3)c(=O)[nH]2)cc(OC)c1OC`, the GI50 with UO-31 renal, in the assay on SW-620 colon, in the assay on T-47D breast, in the assay on NCI/ADR-RES ovarian, in the assay with OVCAR-5 ovarian and in the assay with SNB-75 CNS was more than 100 µM each time. The GI50 with DU-145 prostate, in the assay on CCRF-CEM leukemia, in the assay on NCI-H226 lung and in the assay on MDA-MB-435 was more than 100 µM throughout. The TGI in the assay on UO-31 renal, in the assay with SW-620 colon, in the assay on T-47D breast, in the assay with NCI/ADR-RES ovarian, with OVCAR-5 ovarian and with SNB-75 CNS was more than 100 µM in each case. The TGI in the assay on DU-145 prostate, in the assay on CCRF-CEM leukemia, in the assay on NCI-H226 lung and in the assay on MDA-MB-435 was more than 100 µM in each case.

For the compound `C#CC[C@H](c1nc2cc(Cl)ccc2c(=O)n1Nc1ccccc1)N(CCCN)C(=O)c1cccc(Cl)c1F`, the GI50 with UO-31 renal is 2.94 µM; in the assay with SW-620 colon, 0.237 µM; with T-47D breast it was 0.484 µM; with NCI/ADR-RES ovarian, 14.2 µM; in the assay with OVCAR-5 ovarian, 0.419 µM; in the assay on SNB-75 CNS, 0.251 µM. For the same compound, the GI50 with DU-145 prostate is 0.215 µM; with CCRF-CEM leukemia, 0.134 µM; with NCI-H226 lung, 1.63 µM; in the assay on MDA-MB-435, 0.0281 µM. The TGI in the assay on UO-31 renal was 8.07 µM; in the assay on SW-620 colon, 1.81 µM; in the assay with T-47D breast it was 1.98 µM; with NCI/ADR-RES ovarian, 30 µM; in the assay with OVCAR-5 ovarian, 2.56 µM; with SNB-75 CNS, 1.53 µM. Also, the TGI in the assay with DU-145 prostate turned out to be 0.75 µM; in the assay with CCRF-CEM leukemia, 1.91 µM; in the assay on NCI-H226 lung it was 4.56 µM; in the assay on MDA-MB-435, 0.0915 µM.

Consider `NC(=O)C1=C(c2ccccc2)c2ccccc2C1=O`, for which the TGI with UO-31 renal is 33.3 µM; in the assay on SW-620 colon, 66.6 µM; in the assay on T-47D breast, 40.9 µM; in the assay on NCI/ADR-RES ovarian, 38 µM; in the assay on OVCAR-5 ovarian, 53.9 µM; with SNB-75 CNS it was 36.2 µM. For the same compound, the TGI in the assay with DU-145 prostate was 31.3 µM; in the assay with CCRF-CEM leukemia, 7.71 µM; in the assay on NCI-H226 lung, 37.5 µM; with MDA-MB-435, 65.8 µM.

With `CO/N=C1/NC(=O)/C(=C/c2ccc3ncccc3c2)S1`, the GI50 with UO-31 renal was 4.99 µM; in the assay on SW-620 colon, more than 25 µM; with T-47D breast, 4.46 µM; in the assay with NCI/ADR-RES ovarian, more than 25 µM; with OVCAR-5 ovarian, 6.16 µM; in the assay on SNB-75 CNS, 4.07 µM. The GI50 in the assay with DU-145 prostate is 12.3 µM; with CCRF-CEM leukemia, 10.9 µM; with NCI-H226 lung, 6.5 µM; in the assay on MDA-MB-435, 15 µM. The TGI in the assay on UO-31 renal was more than 22.7 µM; in the assay on SW-620 colon it was more than 25 µM; in the assay with T-47D breast, more than 20.2 µM; in the assay with NCI/ADR-RES ovarian, more than 25 µM; in the assay with OVCAR-5 ovarian, more than 25 µM; in the assay on SNB-75 CNS it was more than 25 µM. Moreover, the TGI with DU-145 prostate, in the assay with CCRF-CEM leukemia, in the assay on NCI-H226 lung and in the assay with MDA-MB-435 was more than 25 µM in each case.

As to `Cn1c(=O)c2[nH]c(COCc3nc4c([nH]3)c(=O)n(C)c(=O)n4C)nc2n(C)c1=O`, the TGI in the assay on UO-31 renal, in the assay on SW-620 colon, in the assay on T-47D breast, with NCI/ADR-RES ovarian, in the assay on OVCAR-5 ovarian and in the assay on SNB-75 CNS was more than 100 µM each time. Besides, the TGI in the assay with DU-145 prostate, in the assay on CCRF-CEM leukemia, in the assay with NCI-H226 lung and in the assay with MDA-MB-435 was more than 100 µM throughout.
